# In patent US9867375B2, “Methods of pest control in soybean” (Syngenta Participations AG, priority 2012, dated 2018):
# System: Euschistus heros
# Assay: Euschistus heros (Neotropical brown stink bug) contact/feeding activity on sprayed soybean plants
# Assay type: in vivo
# Settings: Euschistus heros, 120 h, 50 ppm; sprayed 2 week old soybean plants, 10 N-2 nymphs; evaluation 5 days after infestation on mortality and growth effects
# Method: Euschistus heros (Neotropical brown stink bug) (contact/feeding activity) 2 week old soybean plants are sprayed in a turn table spray chamber with the diluted spray solutions. After drying, 2 soybean seeds are added and plants are infested with 10 N-2 nymphs of the neotropical brown stink bug Euschistus heros in plastic test boxes. Boxes are incubated in a climate chamber at 25° C. and 60% RH. Evaluation is done 5 days after infestation on mortality and growth effects.
row,Compound,pest or weed control at 50 ppm
1,CC(C)C(=O)NCc1ccc(C2=NOC(c3cc(Cl)cc(Cl)c3)(C(F)(F)F)C2)cc1Cl (stereo not drawn) [Compound A2],≥ 50%
2,"CC(=O)NCc1ccc(N2CCC(c3cc(Cl)cc(Cl)c3)(C(F)(F)F)C2)cc1C (stereo not drawn) [Compound A4, N-{4-[3-(3,5-dichlorophenyl)-3-(trifluoromethyl)pyrrolidin1-yl]-2-methyl-benzyl)acetamide]",≥ 50%
3,"CC(=O)NCc1ccc(C2=NCC(c3cc(Cl)cc(Cl)c3)(C(F)(F)F)C2)cc1Br (stereo not drawn) [Compound A5, N-{2-bromo-4-[4-(3,5-dichlorophenyl)-4-trifluoromethyl-4,5-dihydro-3H-pyrrol-2yl]-benzyl}acetamide]",≥ 50%

# Same assay, conditions: low application rates; sprayed soybean plants, N-2 nymphs
row,Compound,control at low application rates
1,"N#Cc1cc(C2=NCC(c3cc(Cl)c(Cl)c(Cl)c3)(C(F)(F)F)C2)ccc1-n1cncn1 (stereo not drawn) [Compound C2, 2-(1,2,4-triazol-1-yl)-5-[3-(3,4,5-trichlorophenyl)-3-(trifluoromethyl)-2,4-dihydropyrrol-5-yl]benzonitrile]",excellent control
2,N#Cc1cc(C2=NOC(c3cc(Cl)c(F)c(Cl)c3)(C(F)(F)F)C2)ccc1-n1cncn1 (stereo not drawn) [Compound C3],excellent control
3,N#Cc1cnn(-c2ccc(C3=NOC(c4cc(Cl)c(F)c(Cl)c4)(C(F)(F)F)C3)cc2C#N)c1 (stereo not drawn) [Compound D1],excellent control
